Data from patent US20090298820A1, “3-SUBSTITUTED-1H-PYRROLO[2,3-B]PYRIDINE AND 3-SUBSTITUTED-1H-PYRROLO[3,2-B]PYRIDINE COMPOUNDS, THEIR USE AS MTOR KINASE AND PI3 KINASE INHIBITORS, AND THEIR SYNTHESES” (Wyeth, priority 2008, published 2009).

Key:
mTOR = mTOR (Homo sapiens, UniProt P42345); experiment: mTOR enzyme assay (DELFIA format, His6-S6K substrate); type: biochemical; conditions: read-out: mTOR Kinase Median IC50
PI3Kα = PI3Kα (Homo sapiens, UniProt P42336); experiment: PI3K-alpha fluorescence polarization assay; type: biochemical; conditions: read-out: PI3Kα Median IC50
PI3Kγ = PI3Kγ (Homo sapiens, UniProt P48736); experiment: PI3K-gamma fluorescence polarization assay; type: biochemical; conditions: read-out: PI3Kγ Median IC50
PI3Kγ, sequence (P48736 whole entry, species assumed): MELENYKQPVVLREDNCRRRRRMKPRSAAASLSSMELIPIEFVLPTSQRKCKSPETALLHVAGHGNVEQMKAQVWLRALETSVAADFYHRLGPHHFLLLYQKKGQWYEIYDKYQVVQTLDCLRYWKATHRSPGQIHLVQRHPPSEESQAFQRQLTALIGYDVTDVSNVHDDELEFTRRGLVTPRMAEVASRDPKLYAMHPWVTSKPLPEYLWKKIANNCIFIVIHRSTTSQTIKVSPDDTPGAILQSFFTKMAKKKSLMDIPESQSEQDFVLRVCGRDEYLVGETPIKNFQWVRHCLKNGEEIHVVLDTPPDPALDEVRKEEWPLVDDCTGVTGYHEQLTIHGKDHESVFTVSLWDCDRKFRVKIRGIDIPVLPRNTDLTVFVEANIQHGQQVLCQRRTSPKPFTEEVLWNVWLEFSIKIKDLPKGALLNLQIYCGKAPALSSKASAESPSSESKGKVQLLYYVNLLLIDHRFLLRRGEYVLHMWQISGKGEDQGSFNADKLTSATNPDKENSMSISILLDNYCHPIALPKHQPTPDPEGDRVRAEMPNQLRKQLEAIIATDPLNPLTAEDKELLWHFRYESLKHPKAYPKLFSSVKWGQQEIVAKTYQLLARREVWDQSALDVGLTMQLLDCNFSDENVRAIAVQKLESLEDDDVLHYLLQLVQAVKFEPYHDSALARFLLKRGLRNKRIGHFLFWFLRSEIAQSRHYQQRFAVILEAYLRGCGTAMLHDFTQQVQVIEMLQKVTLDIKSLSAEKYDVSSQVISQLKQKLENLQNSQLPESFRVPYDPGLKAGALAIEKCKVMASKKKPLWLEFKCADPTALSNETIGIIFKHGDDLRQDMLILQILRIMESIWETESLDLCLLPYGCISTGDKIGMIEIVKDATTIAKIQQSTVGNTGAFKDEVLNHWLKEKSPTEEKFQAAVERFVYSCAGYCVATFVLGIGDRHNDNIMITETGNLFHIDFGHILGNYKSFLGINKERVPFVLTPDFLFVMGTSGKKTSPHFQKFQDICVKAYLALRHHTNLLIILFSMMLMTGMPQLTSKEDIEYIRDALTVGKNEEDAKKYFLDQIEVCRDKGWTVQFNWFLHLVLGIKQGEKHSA

PI3Kα, sequence (P42336 whole entry, species assumed): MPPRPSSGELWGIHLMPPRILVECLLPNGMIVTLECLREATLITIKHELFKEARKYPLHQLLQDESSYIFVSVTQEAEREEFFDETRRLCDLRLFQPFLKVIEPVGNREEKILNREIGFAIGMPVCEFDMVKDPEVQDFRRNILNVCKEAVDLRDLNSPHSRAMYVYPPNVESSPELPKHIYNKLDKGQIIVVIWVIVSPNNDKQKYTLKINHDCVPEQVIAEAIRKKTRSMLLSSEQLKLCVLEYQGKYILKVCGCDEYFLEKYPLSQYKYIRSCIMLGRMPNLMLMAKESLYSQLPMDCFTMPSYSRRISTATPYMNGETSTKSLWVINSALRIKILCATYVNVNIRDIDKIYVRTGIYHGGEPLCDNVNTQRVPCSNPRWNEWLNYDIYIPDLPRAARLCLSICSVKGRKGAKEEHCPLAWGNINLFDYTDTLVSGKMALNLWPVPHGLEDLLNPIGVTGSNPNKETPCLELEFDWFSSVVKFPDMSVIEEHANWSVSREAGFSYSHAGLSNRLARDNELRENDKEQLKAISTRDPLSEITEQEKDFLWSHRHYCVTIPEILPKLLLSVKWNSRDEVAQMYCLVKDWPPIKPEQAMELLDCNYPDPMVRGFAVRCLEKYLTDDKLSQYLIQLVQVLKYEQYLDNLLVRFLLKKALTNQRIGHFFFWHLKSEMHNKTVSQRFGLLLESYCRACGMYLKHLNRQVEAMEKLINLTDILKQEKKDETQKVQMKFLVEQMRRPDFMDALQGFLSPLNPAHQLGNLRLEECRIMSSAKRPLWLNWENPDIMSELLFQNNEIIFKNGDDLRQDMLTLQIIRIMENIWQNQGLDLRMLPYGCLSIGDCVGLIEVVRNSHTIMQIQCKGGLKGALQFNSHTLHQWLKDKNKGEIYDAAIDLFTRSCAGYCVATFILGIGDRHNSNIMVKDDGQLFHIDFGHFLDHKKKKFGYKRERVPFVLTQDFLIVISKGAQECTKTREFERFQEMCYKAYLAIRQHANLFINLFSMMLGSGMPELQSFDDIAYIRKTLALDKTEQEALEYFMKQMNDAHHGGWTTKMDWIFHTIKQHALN
PI3Kα, sequence (P27986 whole entry partner, species assumed): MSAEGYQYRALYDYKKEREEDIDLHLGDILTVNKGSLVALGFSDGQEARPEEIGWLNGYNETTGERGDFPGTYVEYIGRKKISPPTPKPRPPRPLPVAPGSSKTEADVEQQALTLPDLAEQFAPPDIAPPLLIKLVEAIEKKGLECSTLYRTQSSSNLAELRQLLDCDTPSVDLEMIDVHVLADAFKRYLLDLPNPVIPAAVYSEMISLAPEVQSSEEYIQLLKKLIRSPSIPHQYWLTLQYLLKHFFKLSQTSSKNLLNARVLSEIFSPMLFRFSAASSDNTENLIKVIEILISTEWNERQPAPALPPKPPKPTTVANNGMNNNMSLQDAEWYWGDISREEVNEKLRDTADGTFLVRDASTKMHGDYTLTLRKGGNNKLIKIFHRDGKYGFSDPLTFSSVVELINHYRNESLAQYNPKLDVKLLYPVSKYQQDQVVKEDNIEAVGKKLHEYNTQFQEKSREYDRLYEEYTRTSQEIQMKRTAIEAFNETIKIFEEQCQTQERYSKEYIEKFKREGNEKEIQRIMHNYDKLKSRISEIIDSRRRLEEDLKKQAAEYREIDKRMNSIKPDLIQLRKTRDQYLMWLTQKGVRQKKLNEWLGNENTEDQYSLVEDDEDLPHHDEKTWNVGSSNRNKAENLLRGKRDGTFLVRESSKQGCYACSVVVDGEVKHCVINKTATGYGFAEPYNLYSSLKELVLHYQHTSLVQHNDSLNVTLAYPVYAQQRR

Q: What does the source list for `Cn1cc(/C=C2\Oc3cccc(O)c3C2=O)c2c(-c3cccc(C(=O)N4CCCC4)c3)ccnc21` [Compound 103, (2Z)-4-hydroxy-2-({1-methyl-4-[3-(pyrrolidin-1-ylcarbonyl)phenyl]-1H-pyrrolo[2,3-b]pyridin-3-yl}methylene)-1-benzofuran-3(2H)-one]?
A: melting point: 233 to 235 °C; IC50 (mTOR): 6.6 nM; IC50 (PI3Kα): 182 nM; IC50 (PI3Kγ): 169 nM

Q: Which results are given for `Cn1cc(/C=C2\Oc3cccc(O)c3C2=O)c2c(N3CCN(C(=O)N4CCCC4)CC3)ccnc21` [Compound 104, (2Z)-4-hydroxy-2-({1-methyl-4-[4-(pyrrolidin-1-ylcarbonyl)piperazin-1-yl]-1H-pyrrolo[2,3-b]pyridin-3-yl}methylene)-1-benzofuran-3(2H)-one]?
A: melting point: 223 to 225 °C; IC50 (mTOR): 2.9 nM; IC50 (PI3Kα): 70 nM; IC50 (PI3Kγ): 245 nM

Q: Which melting point does the source give for `Cn1cc(/C=C2\Oc3cccc(O)c3C2=O)c2c(N3CC4(C)CC3CC(C)(C)C4)ccnc21` (stereo not drawn) [Compound 105, (2Z)-4-hydroxy-2-{[1-methyl-4-(1,3,3-trimethyl-6-azabicyclo[3.2.1]oct-6-yl)-1H-pyrrolo[2,3-b]pyridin-3-yl]methylene}-1-benzofuran-3(2H)-one] here?
A: 220 to 223 °C

Q: And the IC50 (mTOR)?
A: 69 nM

Q: And the IC50 (PI3Kα)?
A: > 10000 nM

Q: What about the IC50 (PI3Kγ) of the same compound?
A: > 10000 nM

Q: Which melting point does the source give for `Cn1cc(/C=C2\Oc3cccc(O)c3C2=O)c2c(-c3ccc(C(F)(F)F)cc3)ccnc21` [Compound 106, (2Z)-4-hydroxy-2-({1-methyl-4-[4-(trifluoromethyl)phenyl]-1H-pyrrolo[2,3-b]pyridin-3-yl}methylene)-1-benzofuran-3(2H)-one] here?
A: 244 to 254 °C

Q: And the IC50 (mTOR)?
A: 7.4 nM

Q: And the IC50 (PI3Kα)?
A: 6010 nM

Q: And the IC50 (PI3Kγ)?
A: > 10000 nM

Q: Which melting point does the source give for `Cn1cc(/C=C2\Oc3cccc(O)c3C2=O)c2c(-c3cccc(C(F)(F)F)c3)ccnc21` [Compound 107, (2Z)-4-hydroxy-2-({1-methyl-4-[3-(trifluoromethyl)phenyl]-1H-pyrrolo[2,3-b]pyridin-3-yl}methylene)-1-benzofuran-3(2H)-one] here?
A: 262 to 265 °C

Q: And the IC50 (mTOR)?
A: 12.3 nM

Q: And the IC50 (PI3Kα)?
A: 386 nM

Q: And the IC50 (PI3Kγ)?
A: 676 nM

Q: For `Cn1cc(/C=C2\Oc3cccc(N)c3C2=O)c2c(-c3ccccc3)ccnc21` [Compound 108, (2Z)-4-amino-2-[(1-methyl-4-phenyl-1H-pyrrolo[2,3-b]pyridin-3-yl)methylene]-1-benzofuran-3(2H)-one], which melting point is on record?
A: 262 to 268 °C

Q: And the IC50 (mTOR)?
A: 53 nM

Q: What about the IC50 (PI3Kα) of the same compound?
A: 6110 nM

Q: What about the IC50 (PI3Kγ) of the same compound?
A: > 10000 nM

Q: With `Cn1cc(/C=C2\Oc3cccc(O)c3C2=O)c2c(N3CCCC(C(=O)N4CCCC4)C3)ccnc21` (stereo not drawn) [Compound 109, (2Z)-4-hydroxy-2-({1-methyl-4-[3-(pyrrolidin-1-ylcarbonyl)piperidin-1-yl]-1H-pyrrolo[2,3-b]pyridin-3-yl}methylene)-1-benzofuran-3(2H)-one] as the compound, how does the melting point read?
A: 235 to 240 °C

Q: What about the IC50 (mTOR) of the same compound?
A: 4.4 nM

Q: What about the IC50 (PI3Kα) of the same compound?
A: 152 nM

Q: And the IC50 (PI3Kγ)?
A: 253 nM

Q: With `Cn1cc(/C=C2\Oc3cccc(O)c3C2=O)c2c(-c3cccc(OC(F)(F)F)c3)ccnc21` [Compound 110, (2Z)-4-hydroxy-2-({1-methyl-4-[3-(trifluoromethoxy)phenyl]-1H-pyrrolo[2,3-b]pyridin-3-yl}methylene)-1-benzofuran-3(2H)-one] as the compound, how does the melting point read?
A: 230 to 233 °C

Q: What about the IC50 (mTOR) of the same compound?
A: 82.5 nM

Q: What about the IC50 (PI3Kα) of the same compound?
A: 651 nM

Q: And the IC50 (PI3Kγ)?
A: > 10000 nM

Q: Which melting point does the source give for `CN(C)C(=O)c1ccc(-c2ccnc3c2c(/C=C2\Oc4cccc(O)c4C2=O)cn3C)cc1` [Compound 111, 4-{3-[(Z)-(4-hydroxy-3-oxo-1-benzofuran-2(3H)-ylidene)methyl]-1-methyl-1H-pyrrolo[2,3-b]pyridin-4-yl}-N,N-dimethylbenzamide] here?
A: 212 to 218 °C

Q: And the IC50 (mTOR)?
A: 0.5 nM

Q: And the IC50 (PI3Kα)?
A: 36 nM

Q: And the IC50 (PI3Kγ)?
A: 66 nM
